What was measured:
MAGL = biological target: T1, MAGL (Mus musculus, UniProt O35678); experiment: In vitro competitive activity-based protein profiling, mouse MAGL; format: biochemical; conditions: for inhibition at 1 µM: read-out: MAGL % inh. 1 μM (mouse)
T1 construct: mouse brain membrane fraction or cell lysates for mouse assays; from tissue
T1 sequence (O35678 1-303): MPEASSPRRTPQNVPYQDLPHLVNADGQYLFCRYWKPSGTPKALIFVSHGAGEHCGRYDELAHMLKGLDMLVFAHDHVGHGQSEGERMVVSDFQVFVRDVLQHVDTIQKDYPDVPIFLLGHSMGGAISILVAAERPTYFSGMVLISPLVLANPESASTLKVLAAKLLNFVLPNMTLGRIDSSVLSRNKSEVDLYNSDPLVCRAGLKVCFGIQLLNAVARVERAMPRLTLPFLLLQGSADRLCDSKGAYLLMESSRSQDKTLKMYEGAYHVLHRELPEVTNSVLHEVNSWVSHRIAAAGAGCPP
In short: (§1)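 Activity measured as fluorescent gel-band intensity of MAGL and FAAH after SDS-PAGE. Before labelling with FP-Rh or HT-01 (30 min, 37 °C), proteomes at 1.0 mg/mL (mouse brain membrane or lysates; human prefrontal cortex or cell membranes) were exposed to varying inhibitor concentrations for 30 min at 37 °C.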

FAAH = biological target: T2, FAAH (Mus musculus, UniProt O08914); experiment: In vitro competitive activity-based protein profiling, mouse FAAH; format: biochemical; conditions: for inhibition at 1 µM: read-out: FAAH % inh. 1 μM (mouse)
T2 construct: mouse brain membrane fraction or cell lysates for mouse assays; from tissue
T2 sequence (O08914 1-579): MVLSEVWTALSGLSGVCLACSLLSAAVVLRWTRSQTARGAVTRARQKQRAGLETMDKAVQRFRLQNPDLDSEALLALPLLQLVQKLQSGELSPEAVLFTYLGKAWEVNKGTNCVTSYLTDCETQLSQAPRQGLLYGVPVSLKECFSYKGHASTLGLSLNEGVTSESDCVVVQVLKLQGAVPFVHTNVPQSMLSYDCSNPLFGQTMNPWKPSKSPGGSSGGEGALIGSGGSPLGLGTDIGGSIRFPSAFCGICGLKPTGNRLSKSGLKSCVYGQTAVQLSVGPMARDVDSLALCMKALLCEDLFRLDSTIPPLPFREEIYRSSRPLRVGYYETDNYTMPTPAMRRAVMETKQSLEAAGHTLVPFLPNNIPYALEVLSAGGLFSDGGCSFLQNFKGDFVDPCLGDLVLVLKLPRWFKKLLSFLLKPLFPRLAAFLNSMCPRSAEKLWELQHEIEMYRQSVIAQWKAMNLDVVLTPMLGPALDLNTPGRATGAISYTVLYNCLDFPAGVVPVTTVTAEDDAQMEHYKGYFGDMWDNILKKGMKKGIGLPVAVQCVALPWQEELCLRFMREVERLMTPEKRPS
In short: as §1

Structure (SMILES)	inhibition at 1 µM (MAGL) [%]	inhibition at 10 µM (MAGL; 10 μM, read-out: MAGL % inh. at 10 μM (mouse)) [%]	inhibition at 1 µM (FAAH) [%]	inhibition at 10 µM (FAAH; 10 μM, read-out: FAAH % inh. at 10 μM (mouse)) [%]
O=C(c1cnn(C(=O)N2CC3CN(Cc4ccc(Oc5ccc(Cl)cc5)cc4)CC3C2)c1)N1CCOCC1 (stereo not shown) [Example 200, (5-(4-(4-chlorophenoxy)benzyl)hexahydropyrrolo[3,4-c]pyrrol-2(1H)-yl)(4-(morpholine-4-carbonyl)-1H-pyrazol-1-yl)methanone]	0 to 25	50	≥ 75	100
NC(=O)c1cnn(C(=O)N2CCC3(CCN(Cc4ccc(-c5nccs5)cc4Cl)C3)C2)c1 (stereo not shown) [Example 201, 1-(7-(2-chloro-4-(thiazol-2-yl)benzyl)-2,7-diazaspiro[4.4]nonane-2-carbonyl)-1H-pyrazole-4-carboxamide]	≥ 75	–	≥ 75	–
NC(=O)c1cnn(C(=O)N2CCC3(CCN(Cc4ccc(Cl)c(Cl)c4)C3)C2)c1 (stereo not shown) [Example 202, 1-(7-(3,4-dichlorobenzyl)-2,7-diazaspiro[4.4]nonane-2-carbonyl)-1H-pyrazole-4-carboxamide]	≥ 75	–	≥ 75	–
NC(=O)c1cnn(C(=O)N2CCC3(CCN(Cc4ccc(N5CCCC5)cc4Cl)C3)C2)c1 (stereo not shown) [Example 205, 1-(7-(2-chloro-4-(pyrrolidin-1-yl)benzyl)-2,7-diazaspiro[4.4]nonane-2-carbonyl)-1H-pyrazole-4-carboxamide]	≥ 75	–	≥ 75	–
NC(=O)c1cnn(C(=O)N2CCC3(CCN(Cc4cc(N5CCCC5)cc(C(F)(F)F)c4)C3)C2)c1 (stereo not shown) [Example 211, 1-(7-(3-(pyrrolidin-1-yl)-5-(trifluoromethyl)benzyl)-2,7-diazaspiro[4.4]nonane-2-carbonyl)-1H-pyrazole-4-carboxamide]	≥ 75	–	≥ 75	–
CN(Cc1cc(C(F)(F)F)ccc1Cl)[C@H]1C[C@@H]2CN(C(=O)n3cc(C(N)=O)cn3)C[C@@H]2C1 [Example 214, 1-(trans-5-((2-chloro-5-(trifluoromethyl)benzyl)(methyl)amino)octahydrocyclopenta[c]pyrrole-2-carbonyl)-1H-pyrazole-4-carboxamide]	≥ 75	–	≥ 75	–
CN(Cc1cc(Cl)ccc1C(F)(F)F)[C@H]1C[C@@H]2CN(C(=O)n3cc(C(N)=O)cn3)C[C@@H]2C1 [Example 215, 1-(trans-5-((5-chloro-2-(trifluoromethyl)benzyl)(methyl)amino)octahydrocyclopenta[c]pyrrole-2-carbonyl)-1H-pyrazole-4-carboxamide]	≥ 75	–	≥ 75	–
CN(Cc1ccc(C(F)(F)F)c(N2CCCC2)c1)[C@H]1C[C@@H]2CN(C(=O)n3cc(C(N)=O)cn3)C[C@@H]2C1 [Example 216, 1-(trans-5-(methyl(3-(pyrrolidin-1-yl)-4-(trifluoromethyl)benzyl)amino)octahydrocyclopenta[c]pyrrole-2-carbonyl)-1H-pyrazole-4-carboxamide]	≥ 75	–	≥ 75	–
CN(Cc1cc(N2CCCC2)cc(C(F)(F)F)c1)[C@H]1C[C@@H]2CN(C(=O)n3cc(C(N)=O)cn3)C[C@@H]2C1 [Example 217, 1-(trans-5-(methyl(3-(pyrroldin-1-yl)-5-(trifluoromethyl)benzyl)amino)octahydrocyclopenta[c]pyrrole-2-carbonyl)-1H-pyrazole-4-carboxamide]	≥ 75	–	≥ 75	–
CN(Cc1cc(C(F)(F)F)ccc1Cl)[C@@H]1C[C@@H]2CN(C(=O)n3cc(C(N)=O)cn3)C[C@@H]2C1 [Example 218, 1-(cis-5-((2-chloro-5-(trifluoromethyl)benzyl)(methyl)amino)octahydrocyclopenta[c]pyrrole-2-carbonyl)-1H-pyrazole-4-carboxamide]	≥ 75	–	≥ 75	–
CN(Cc1cc(Cl)ccc1C(F)(F)F)[C@@H]1C[C@@H]2CN(C(=O)n3cc(C(N)=O)cn3)C[C@@H]2C1 [Example 219, 1-(cis-5-((5-chloro-2-(trifluoromethyl)benzyl)(methyl)amino)octahydrocyclopenta[c]pyrrole-2-carbonyl)-1H-pyrazole-4-carboxamide]	≥ 75	–	≥ 75	–
CN(Cc1ccc(C(F)(F)F)c(N2CCCC2)c1)[C@@H]1C[C@@H]2CN(C(=O)n3cc(C(N)=O)cn3)C[C@@H]2C1 [Example 221, 1-(cis-5-(methyl(3-(pyrrolidin-1-yl)-4-(trifluoromethyl)benzyl)amino)octahydrocyclopenta[c]pyrrole-2-carbonyl)-1H-pyrazole-4-carboxamide]	≥ 75	–	≥ 75	–
CN(Cc1cc(N2CCCC2)cc(C(F)(F)F)c1)[C@@H]1C[C@@H]2CN(C(=O)n3cc(C(N)=O)cn3)C[C@@H]2C1 [Example 222, 1-(cis-5-(methyl(3-(pyrrolidin-1-yl)-5-(trifluoromethyl)benzyl)amino)octahydrocyclopenta[c]pyrrole-2-carbonyl)-1H-pyrazole-4-carboxamide]	≥ 75	–	≥ 75	–
CN(Cc1ccc(-c2cnccn2)cc1C(F)(F)F)[C@H]1C[C@@H]2CN(C(=O)n3cc(C(N)=O)cn3)C[C@@H]2C1 [Example 223, 1-(trans-5-(methyl(4-(pyrazin-2-yl)-2-(trifluoromethyl)benzyl)amino)octahydrocyclopenta[c]pyrrole-2-carbonyl)-1H-pyrazole-4-carboxamide]	≥ 75	–	≥ 75	–

Second part, the molecule after the results:

inhibition at 1 µM (MAGL) [%]	inhibition at 10 µM (MAGL; 10 μM, read-out: MAGL % inh. at 10 μM (mouse)) [%]	inhibition at 1 µM (FAAH) [%]	inhibition at 10 µM (FAAH; 10 μM, read-out: FAAH % inh. at 10 μM (mouse)) [%]	Structure (SMILES)
≥ 75	–	≥ 75	–	NC(=O)c1cnn(C(=O)N2CCC3(CCN(Cc4ccc(N5CCCC5)cc4C(F)(F)F)C3)C2)c1 (stereo not shown) [Example 203, 1-(7-(4-(pyrrolidin-1-yl)-2-(trifluoromethyl)benzyl)-2,7-diazaspiro[4.4]nonane-2-carbonyl)-1H-pyrazole-4-carboxamide]
≥ 75	–	≥ 75	–	NC(=O)c1cnn(C(=O)N2CCC3(CCN(Cc4ccc(N5CCOCC5)cc4Cl)C3)C2)c1 (stereo not shown) [Example 204, 1-(7-(2-chloro-4-morpholinobenzyl)-2,7-diazaspiro[4.4]nonane-2-carbonyl)-1H-pyrazole-4-carboxamide]
≥ 75	–	≥ 75	–	NC(=O)c1cnn(C(=O)N2CCC3(CCN(Cc4ccc(N5CCOCC5)c(C(F)(F)F)c4)C3)C2)c1 (stereo not shown) [Example 206, 1-(7-(4-morpholino-3-(trifluoromethyl)benzyl)-2,7-diazaspiro[4.4]nonane-2-carbonyl)-1H-pyrazole-4-carboxamide]
≥ 75	–	≥ 75	–	NC(=O)c1cnn(C(=O)N2CCC3(CCN(Cc4ccc(N5CCCC5)c(C(F)(F)F)c4)C3)C2)c1 (stereo not shown) [Example 207, 1-(7-(4-(pyrrolidin-1-yl)-3-(trifluoromethyl)benzyl)-2,7-diazaspiro[4.4]nonane-2-carbonyl)-1H-pyrazole-4-carboxamide]
≥ 75	–	≥ 75	–	NC(=O)c1cnn(C(=O)N2CCC3(CCN(Cc4ccc(C(F)(F)F)c(N5CCOCC5)c4)C3)C2)c1 (stereo not shown) [Example 208, 1-(7-(3-morpholino-4-(trifluoromethyl)benzyl)-2,7-diazaspiro[4.4]nonane-2-carbonyl)-1H-pyrazole-4-carboxamide]
≥ 75	–	≥ 75	–	NC(=O)c1cnn(C(=O)N2CCC3(CCN(Cc4ccc(C(F)(F)F)c(N5CCCC5)c4)C3)C2)c1 (stereo not shown) [Example 209, 1-(7-(3-(pyrrolidin-1-yl)-4-(trifluoromethyl)benzyl)-2,7-diazaspiro[4.4]nonane-2-carbonyl)-1H-pyrazole-4-carboxamide]
≥ 75	–	≥ 75	–	NC(=O)c1cnn(C(=O)N2CCC3(CCN(Cc4cc(N5CCOCC5)ccc4C(F)(F)F)C3)C2)c1 (stereo not shown) [Example 212, 1-(7-(5-morpholino-2-(trifluoromethyl)benzyl)-2,7-diazaspiro[4.4]nonane-2-carbonyl)-1H-pyrazole-4-carboxamide]
≥ 75	–	50 to 75	–	NC(=O)c1cnn(C(=O)N2CCC3(CCN(Cc4cc(N5CCCC5)ccc4C(F)(F)F)C3)C2)c1 (stereo not shown) [Example 213, 1-(7-(5-(pyrrolidin-1-yl)-2-(trifluoromethyl)benzyl)-2,7-diazaspiro[4.4]nonane-2-carbonyl)-1H-pyrazole-4-carboxamide]
